In this test the target is T1, chicken gizzard smooth muscle myosin subfragment-1 chemically crosslinked to either cardiac or skeletal actin (Gallus gallus, UniProt P10587).
T1 construct: chicken gizzard smooth muscle myosin subfragment-1; from tissue; host or cells: chicken gizzard
Briefly: Dose dependent smooth muscle myosin ATPase modulation (pyruvate kinase/horseradish peroxidase/pyruvate oxidase-coupled ATPase assay). Format: biochemical. The settings on record: read-out: IC50 Arithmetic Mean. The procedure: In Vitro Model of Dose Dependent Smooth Muscle Myosin Atpase Modulation
Screening assays were performed using a pyruvate kinase and lactate dehydrogenase-coupled ATPase assay containing the following reagents: Potassium PIPES (50 mM ), MgCl2 (3 mM ), KCl (100 mM ), ATP (0.15 mM ), DTT (1 mM ), BSA (0.1 mg/ml), NADH (0.5 mM ), PEP (1.5 mM ), pyruvate kinase (4 U/ml), lactate dehydrogenase (8 U/ml), and antifoam (50 ppm) (concentrations expressed are final assay concentrations). The pH was adjusted to 6.80 at 22° C. by addition of potassium hydroxide. Lead optimization assays were performed with a more sensitive pyruvate kinase/horseradish peroxidase/pyruvate oxidase-coupled ATPase assay containing the following reagents: Potassium PIPES (12 mM ), MgCl2 (2 mM ), KCl (100 mM ), ATP (0.15 mM ), BSA (0.05 mg/ml), potassium phosphate (2 mM ), amplex red (0.1 mM ), PEP (0.1 mM ), pyruvate kinase (4 U/ml), horseradish peroxidase (0.5 U/ml), pyruvate oxidase (0.5 U/ml), and antifoam (50 ppm) (concentrations expressed are final assay concentrations). The pH was adjusted to 7.00 at 22° C. by addition of potassium hydroxide.
The protein components specific to this assay are chicken gizzard smooth muscle myosin subfragment-1 that has been chemically crosslinked to either cardiac or skeletal actin using an excess of 1-Ethyl-3-[3-dimethylaminopropyl]carbodiimide hydrochloride and N-hydroxysuccinimide. The exact concentration of the crosslinked smooth muscle myosin in the assay is determined empirically, by titration to achieve a desired rate of ATP hydrolysis. The concentration varies between protein preparations due to variations in the fraction of active molecules in each preparation.
Compound dose response assays are performed by first preparing a dilution series of test compound, each with an assay mixture containing potassium PIPES, MgCl2, KCl, ATP, BSA, potassium phosphate, amplex red, PEP, crosslinked smooth muscle actomyosin (subfragment-1), antifoam, and water. The assay is started by adding an equal volume of solution containing potassium Pipes, MgCl2, KCl, BSA, potassium phosphate, pyruvate kinase, horseradish peroxidase, pyruvate oxidase, antifoam, and water. ATP hydrolysis is monitored by measuring the fluorescence of amplex red (excitation at 480 nm, emission at 615 nm). The resulting dose response curve is fit by the 4 parameter equation y=Bottom+((Top−Bottom)/(1+((IC50/X)^Hill))). The IC50 is defined as the concentration at which ATPase activity is midway between the top and bottom of the dose response curve.

Our source for the IC50 values is patent publication US7939534B2, “Certain chemical entities, compositions, and methods” (Cytokinetics, Inc., priority 2006, dated 2011).

A word on the IC50: it is the concentration that inhibits the measured activity by half.

As to `CC(C)(C)OC(=O)NC1CCN(c2ccc(C(=O)NCc3cccnc3)c(NCCc3cccc(F)c3)n2)CC1` [Compound 110, (tert-butoxy)-N-[1-(6-{[2-(3-fluorophenyl)ethyl]amino}-5-[N-(3-pyridylmethyl)carbamoyl](2-pyridyl))(4-piperidyl)]carboxamide], the IC50 was found to be 16.4 µM.
With `CN(C)C(=O)N[C@@H]1CCN(c2ccc(C(=O)NCc3cccnc3)c(NCCc3cccc(F)c3)n2)C1` [Compound 31, N-[(3R)-1-(6-{[2-(3-fluorophenyl)ethyl]amino}-5-[N-(3-pyridylmethyl)carbamoyl](2-pyridyl))pyrrolidin-3-yl](dimethylamino)carboxamide], the IC50 was 67.8 µM.
For the compound `O=C(NCc1cccnc1)c1ccc(C2=CCCC2)nc1NCCc1cccc(F)c1` [Compound 62, (6-cyclopent-1-enyl-2-{[2-(3-fluorophenyl)ethyl]amino}(3-pyridyl))-N-(3-pyridylmethyl)carboxamide], the IC50 is 0.637 µM.
On to `O=C(NCc1cccnc1)c1ccc(C2CCCCC2)nc1NCCc1cccc(F)c1` [Compound 66, (6-cyclohexyl-2-{[2-(3-fluorophenyl)ethyl]amino}(3-pyridyl))-N-(3-pyridylmethyl)carboxamide], for which the IC50 was 4.17 µM.
`CNC(=O)CNC(=O)c1ccc(N2CCC(O)CC2)nc1NCCc1cccc(F)c1` [Compound 90, 2-[(2-{[2-(3-fluorophenyl)ethyl]amino}-6-(4-hydroxypiperidyl)(3-pyridyl))carbonylamino]-N-methylacetamide]: the IC50 came to 9.5 µM.
`O=C1CC=C(c2ccc(C(=O)NCc3cccnc3)c(NCCc3cccc(F)c3)n2)CC1` [Compound 64, (2-{[2-(3-fluorophenyl)ethyl]amino}-6-(4-oxocyclohex-1-enyl)(3-pyridyl))-N-(3-pyridylmethyl)carboxamide]: the IC50 is 0.671 µM.
With `CNC(=O)CNC(=O)c1ccc(C2=CCN(C(=O)OC)CC2)nc1NCCc1cccc(F)c1` [Compound 43, methyl 4-(6-{[2-(3-fluorophenyl)ethyl]amino}-5-{N-[(N-methylcarbamoyl)methyl]carbamoyl}-2-pyridyl)-1,2,5,6-tetrahydropyridinecarboxylate], the 50% inhibitory concentration (IC50) turned out to be 0.627 µM.
For the compound `CN(C)C(=O)N1CC=C(c2ccc(C(=O)NCc3cccnc3)c(NCCc3cccc(F)c3)n2)CC1` [Compound 69, (6-[1-(N,N-dimethylcarbamoyl)(4-1,2,5,6-tetrahydropyridyl)]-2-{[2-(3-fluorophenyl)ethyl]amino}(3-pyridyl))-N-(3-pyridylmethyl)carboxamide], the IC50 stood at 0.452 µM.
As to `N[C@H]1CCN(c2ccc(C(=O)NCc3cccnc3)c(NCCc3cccc(F)c3)n2)C1` [Compound 30, (6-((3S)-3-aminopyrrolidinyl)-2-{[2-(3-fluorophenyl)ethyl]amino}(3-pyridyl))-N-(3-pyridylmethyl)carboxamide], the IC50 is 28.4 µM.
As to `NC1CCN(c2ccc(C(=O)NCc3cccnc3)c(NCCc3cccc(F)c3)n2)C1` (centres unmarked) [Compound 86, (6-(3-aminopyrrolidinyl)-2-{[2-(3-fluorophenyl)ethyl]amino}(3-pyridyl))-N-(3-pyridylmethyl)carboxamide], the IC50 came to 23.1 µM.
Consider `NCc1ncccc1CNC(=O)c1cc(F)c(C2CC2)nc1NCCc1cccc(F)c1` [Compound 81, N-{[2-(aminomethyl)(3-pyridyl)]methyl}(6-cyclopropyl-5-fluoro-2-{[2-(3-fluorophenyl)ethyl]amino}(3-pyridyl))carboxamide], for which the IC50 is 1.32 µM.
The value for `CN(C)[C@@H]1CCN(c2ccc(C(=O)NCc3cccnc3)c(NCCc3cccc(F)c3)n2)C1` [Compound 92, (6-[(3R)-3-(dimethylamino)pyrrolidinyl]-2-{[2-(3-fluorophenyl)ethyl]amino}(3-pyridyl))-N-(3-pyridylmethyl)carboxamide] was 76 µM; that for `CC(C)(C)OC(=O)NCC(=O)N1CCC[C@@H]1CNC(=O)c1cc(F)c(N2CCCC2)nc1NCCc1cccc(F)c1` [Compound 77, N-[((2R)-1-{2-[(tert-butoxy)carbonylamino]acetyl}pyrrolidin-2-yl)methyl](5-fluoro-2-{[2-(3-fluorophenyl)ethyl]amino}-6-pyrrolidinyl(3-pyridyl))carboxamide] was 13.6 µM; that for `CN(C)C[C@@H]1CCN(c2ccc(C(=O)NCc3cccnc3)c(NCCc3cccc(F)c3)n2)C1` [Compound 9, (6-{(3S)-3-[(dimethylamino)methyl]pyrrolidinyl}-2-{[2-(3-fluorophenyl)ethyl]amino}(3-pyridyl))-N-(3-pyridylmethyl)carboxamide] was 75.1 µM.
As to `CCOC(=O)N1CCN(c2ccc(C(=O)NCc3cccnc3)c(NCCc3cccc(F)c3)n2)CC1` [Compound 125, ethyl 4-(6-{[2-(3-fluorophenyl)ethyl]amino}-5-[N-(3-pyridylmethyl)carbamoyl]-2-pyridyl)piperazinecarboxylate], the IC50 came out at 3.16 µM.
`O=C(NCc1cccnc1)c1ccc(N2CCS(=O)(=O)CC2)nc1NCCc1cccc(F)c1` [Compound 122, (6-(1,1-dioxo(1,4-thiazaperhydroin-4-yl))-2-{[2-(3-fluorophenyl)ethyl]amino}(3-pyridyl))-N-(3-pyridylmethyl)carboxamide]: the IC50 was 29.9 µM.
Take `CN[C@H]1CCN(c2ccc(C(=O)NCc3cccnc3)c(NCCc3cccc(F)c3)n2)C1` [Compound 120, (6-[(3S)-3-(methylamino)pyrrolidinyl]-2-{[2-(3-fluorophenyl)ethyl]amino}(3-pyridyl))-N-(3-pyridylmethyl)carboxamide]: the IC50 came out at 59.5 µM.
As for `O=C(NCc1cccnc1)c1ccc(N2CC[C@@H](CO)C2)nc1NCCc1cccc(F)c1` [Compound 6, (6-[(3R)-3-(hydroxymethyl)pyrrolidinyl]-2-{[2-(3-fluorophenyl)ethyl]amino}(3-pyridyl))-N-(3-pyridylmethyl)carboxamide], the IC50 is 0.311 µM.
Under `CNC[C@@H]1CCN(c2ccc(C(=O)NCc3cccnc3)c(NCCc3cccc(F)c3)n2)C1` [Compound 7, (6-{(3S)-3-[(methylamino)methyl]pyrrolidinyl}-2-{[2-(3-fluorophenyl)ethyl]amino}(3-pyridyl))-N-(3-pyridylmethyl)carboxamide] stands 64.8 µM; under `CC(C)(C)OC(=O)NCC1CCN(c2ccc(C(=O)NCc3cccnc3)c(NCCc3cccc(F)c3)n2)CC1` [Compound 109, (tert-butoxy)-N-{[1-(6-{[2-(3-fluorophenyl)ethyl]amino}-5-[N-(3-pyridylmethyl)carbamoyl](2-pyridyl))(4-piperidyl)]methyl}carboxamide], 4.56 µM.
Consider `O=C(NC[C@H]1CCCN1)c1cc(F)c(N2CCCC2)nc1NCCc1cccc(F)c1` [Compound 79, N-[((2R)pyrrolidin-2-yl)methyl](5-fluoro-2-{[2-(3-fluorophenyl)ethyl]amino}-6-pyrrolidinyl(3-pyridyl))carboxamide], for which the IC50 is 1.8 µM.
With `CS(=O)(=O)C1CCN(c2ccc(C(=O)NCc3cccnc3)c(NCCc3cccc(F)c3)n2)C1` (centres unmarked) [Compound 107, (2-{[2-(3-fluorophenyl)ethyl]amino}-6-[3-(methylsulfonyl)pyrrolidinyl](3-pyridyl))-N-(3-pyridylmethyl)carboxamide], the IC50 was 11.5 µM.
Take `O=C(NCc1cccnc1)c1ccc(N2CCSCC2)nc1NCCc1cccc(F)c1` [Compound 121, (2-{[2-(3-fluorophenyl)ethyl]amino}-6-(1,4-thiazaperhydroin-4-yl)(3-pyridyl))-N-(3-pyridylmethyl)carboxamide]: the IC50 was 1.57 µM.
The value for `NCc1ncccc1CNC(=O)c1ccc(N2CC[C@@H](O)C2)nc1NCCc1cccc(F)c1` [Compound 36, (6-((3R)-3-hydroxypyrrolidinyl)-2-{[2-(3-fluorophenyl)ethyl]amino}(3-pyridyl))-N-{[2-(aminomethyl)(3-pyridyl)]methyl}carboxamide] was 0.327 µM; that for `O=C(NCc1cccnc1)c1ccc(N2CCC(O)(c3ccccc3)CC2)nc1NCCc1cccc(F)c1` [Compound 111, (2-{[2-(3-fluorophenyl)ethyl]amino}-6-(4-hydroxy-4-phenylpiperidyl)(3-pyridyl))-N-(3-pyridylmethyl)carboxamide] was 16.7 µM; that for `NCc1cccc(CNC(=O)c2ccc(N3CC[C@@H](O)C3)nc2NCCc2cccc(F)c2)n1` [Compound 103, (6-((3R)-3-hydroxypyrrolidinyl)-2-{[2-(3-fluorophenyl)ethyl]amino}(3-pyridyl))-N-{[6-(aminomethyl)(2-pyridyl)]methyl}carboxamide] was 2.22 µM.
